pIC50: −log10 of the molar value.
Key:
full-length human EphB4 = target: T1, full-length human EphB4 (Homo sapiens, UniProt P54760); assay: Cellular phosphorylation assay (sandwich ELISA, ProQinase); format: cell-based; conditions: mouse embryonic fibroblast cells overexpressing EphB4, stimulated with murine ephrinB2-Fc, read-out: cell IC50
T1 construct: stably transfected to overexpress full-length human EphB4; host or cells: Mouse embryonic fibroblast cells
T1 sequence (P54760 16-987): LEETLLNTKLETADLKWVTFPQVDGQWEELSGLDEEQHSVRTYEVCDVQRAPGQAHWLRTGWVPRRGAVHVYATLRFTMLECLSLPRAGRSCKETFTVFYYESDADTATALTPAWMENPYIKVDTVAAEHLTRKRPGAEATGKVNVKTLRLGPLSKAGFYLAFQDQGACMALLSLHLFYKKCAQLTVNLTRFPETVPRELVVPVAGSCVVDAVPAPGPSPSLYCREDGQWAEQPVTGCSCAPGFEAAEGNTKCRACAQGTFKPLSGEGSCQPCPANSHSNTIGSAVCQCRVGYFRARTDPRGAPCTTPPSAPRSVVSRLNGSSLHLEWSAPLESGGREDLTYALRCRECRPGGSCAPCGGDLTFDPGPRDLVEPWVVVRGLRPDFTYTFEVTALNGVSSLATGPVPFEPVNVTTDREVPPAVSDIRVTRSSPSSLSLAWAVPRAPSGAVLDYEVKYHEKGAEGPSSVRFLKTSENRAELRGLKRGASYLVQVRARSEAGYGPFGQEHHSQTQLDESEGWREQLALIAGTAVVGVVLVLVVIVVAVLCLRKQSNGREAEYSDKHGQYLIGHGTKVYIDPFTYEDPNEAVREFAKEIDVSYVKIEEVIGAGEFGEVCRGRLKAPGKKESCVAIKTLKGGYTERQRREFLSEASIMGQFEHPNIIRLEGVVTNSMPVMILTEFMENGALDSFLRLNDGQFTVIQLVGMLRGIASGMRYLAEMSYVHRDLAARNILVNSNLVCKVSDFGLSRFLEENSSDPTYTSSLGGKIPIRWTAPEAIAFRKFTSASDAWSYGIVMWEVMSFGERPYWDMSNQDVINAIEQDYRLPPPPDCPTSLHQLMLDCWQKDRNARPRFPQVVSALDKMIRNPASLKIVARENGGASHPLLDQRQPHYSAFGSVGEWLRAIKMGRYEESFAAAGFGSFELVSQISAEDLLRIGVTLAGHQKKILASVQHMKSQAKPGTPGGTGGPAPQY
Method: Cellular phosphorylation assays: The cellular phosphorylation experiments were performed at ProQinase GmbH. Mouse embryonic fibroblast cells, stably transfected to overexpress full-length human EphB4, were plated at 4×10^4 cells/well in DMEM supplemented with 10% FCS in 48-well culture dishes. Medium was replaced by DMEM without FCS before test compounds prediluted in 100% DMSO were added (final DMSO concentration of 1 %). After incubation for 90 min at 37 °C, cells were stimulated for 2 h at 4 °C using murine ephrinB2-Fc at a final concentration of 2 µg/ml. Quantification of EphB4 phosphorylation was assessed in a 96-well plate via sandwich ELISA using a myc capture antibody and an antiphosphotyrosine detection antibody. Table 4: Cell IC50 (µmol/l) in cells overexpressing EphB4

EphA3 = target: T2, EphA3 (Homo sapiens, UniProt P29320); assay: Differential Scanning Fluorimetry; format: binding; conditions: 2 µM EphA3, compound 20µM; read-out: Delta Tm
T2 construct: A clone of EphA3 kinase domain (residues: 606-947); made in house; host or cells: Escherichia coli BL21 (DE3)
T2 sequence (P29320 606-947): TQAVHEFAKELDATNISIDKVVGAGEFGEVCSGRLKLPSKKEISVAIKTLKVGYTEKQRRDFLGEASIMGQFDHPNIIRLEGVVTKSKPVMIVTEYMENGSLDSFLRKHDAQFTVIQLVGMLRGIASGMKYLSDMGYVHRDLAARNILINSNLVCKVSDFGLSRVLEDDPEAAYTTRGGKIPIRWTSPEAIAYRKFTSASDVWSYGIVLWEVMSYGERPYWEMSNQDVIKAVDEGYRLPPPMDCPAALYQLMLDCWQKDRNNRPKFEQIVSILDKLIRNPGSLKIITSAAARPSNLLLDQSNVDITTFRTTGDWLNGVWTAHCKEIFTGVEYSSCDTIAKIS
Method: Cell pellets were resuspended in buffer A (50mM Tris, pH 8.0 and 100mM NaCl, supplemented with protease inhibitors) and lysed by sonication. After centrifugation at 15,000 rpm for 1 h, the soluble fraction of EphA3 was purified using […] (GE healthcare), followed by gel filtration chromatography (Superdex75; GE healthcare). The appropriate fractions were combined and concentrated to ~10 mg/mL using Amicon filter devices (10kDa as cutoff) in a storage solution (100mM sodium chloride and 10mM Tris-HCl pH 8.0, 5% glycerol). The resulting solution was aliquoted and stored at -80°C for further usage.
A final volume of 40µL was added per well in a 96 well plate and incubated at room temperature for 1 h. The plates were centrifuged for 3 min at 450 rcf. The temperature gradient was performed in the range of 25°C-75°C (50 acquisitions per degree at a ramp rate of 4.4°C/s) using a LightCycler 480 Real-Time PCR System. […] All measurements were performed in triplicate.

[1] = tested on: A498 (kidney cancer) cells; assay: Cell culture and GI50 determination (resazurin), A-498; format: cell-based; conditions: Homo sapiens, A-498, 48h incubation
Method: Krek (Institute of Cell Biology, ETH Zurich) were cultured in Dulbelcco's modified Eagle's medium (DMEM) supplemented with 10% (v/v) fetal bovine serum. K562 leukemia cells obtained from Dr. Silvio Hemmi (Institute of Molecular Life Sciences, UZH) were cultured using RPMI medium supplemented with 5% (v/v) fetal bovine serum. All the media was additionally supplemented with 100 units/mL of penicillin, 100µg/mL of streptomycin, 4.5 g/L glucose, 0.11g/L sodium pyrubate and 2mM glutamine and the cells were grown at 37°C in 5% CO2 atmosphere with 80% relative humidity.
The old media was removed, the cells were washed with PBS (phosphate-buffered saline) and fresh media was added. […] Control cells were treated with the same DMSO concentrations. […] After 3 hours, the fluorescence was quantified using a fluorescence microplate reader (Biotek, FLx800™) at the respective excitation and emission wavelength of 560 and 590 nm. Resazurin becomes fluorescent under mitochondrial reduction and its emission directly correlates with the metabolic stability of the cells. […] All measurements were performed at least in triplicate (see table 1).

SMILES	pIC50 (full-length human EphB4)	ΔTm at 20 µM (EphA3)	GI50 [1]
NC(=O)c1c(N)n(-c2cccc(C(=O)Nc3cccc(C(F)(F)F)c3)c2)c2nc3ccccc3nc12 [Compound 10c, 2-amino-1-(3-((3-(trifluoromethyl)phenyl)carbamoyl)phenyl)-1H-pyrrolo[2,3-b]quinoxaline-3-carboxamide]	7.80	9.1 °C	
NC(=O)c1c(N)n(-c2cccc(NC(=O)c3cccc(C(F)(F)F)c3)c2)c2nc3ccccc3nc12 [Compound 10d, 2-amino-1-(3-(3-(trifluoromethyl)benzamido)phenyl)-1H-pyrrolo[2,3-b]quinoxaline-3-carboxamide]	7.70	7.6 °C	13400 nM
